Data set [1] relates to SK-BR-3 and BT-474 breast cancer cells. The data set is described as follows: in vitro cellular proliferation assay of free drug and drug-linker. The class given is cell-based. An excerpt: Pharmaceutical formulations of a therapeutic antibody-drug conjugate (ADC) may contain certain amounts of unreacted drug moiety (D), antibody-linker intermediate (Ab-L), and/or drug-linker intermediate (D-L), as a consequence of incomplete purification and separation of excess reagents, impurities, and by-products, in the process of making the ADC; or time/temperature hydrolysis or degradation upon storage of the bulk ADC or formulated ADC composition. […] Alternatively, or in addition to, it may contain a detectable amount of drug-linker intermediate DM1-SMCC. Alternatively, or in addition to, it may contain a detectable amount of the antibody, trastuzumab.
Efficacy of ADC were measured by a cell proliferation assay employing the following protocol (Promega Corp. Technical Bulletin TB288; Mendoza et al (2002) Cancer Res. 62:5485-5488): • 1. An aliquot of 100 μl of cell culture containing about 10^4 cells (SKBR-3, BT474, MCF7 or MDA-MB-468) in medium was deposited in each well of a 96-well, opaque-walled plate. • 2. Control wells were prepared containing medium and without cells. • 3. ADC was added to the experimental wells and incubated for 3-5 days. • 4. The plates were equilibrated to room temperature for approximately 30 minutes. • 5. A volume of CellTiter-Glo Reagent equal to the volume of cell culture medium present in each well was added. • 6. The contents were mixed for 2 minutes on an orbital shaker to induce cell lysis. • 7. The plate was incubated at room temperature for 10 minutes to stabilize the luminescence signal. • 8. Luminescence was recorded and reported in graphs as RLU=relative luminescence units.

Data set [2] can be described thus: 5-day acute toxicity study in rats. The class given is in vivo, female Sprague-Dawley rats. Particulars: free DM1, 160 μg/kg (Group 6).
Protocol: Antibody-drug conjugates and an ADC-minus control, “Vehicle”, were evaluated in an acute toxicity rat model. Toxicity of ADC was investigated by treatment of female Sprague-Dawley rats with the ADC and subsequent inspection and analysis of the effects on various organs. Based on gross observations (body weights), clinical pathology parameters (serum chemistry and hematology) and histopathology, the toxicity of ADC may be observed, characterized, and measured.
Body weight was measured daily. Clinical chemistry, serum enzymes and hematology analysis was conducted on days 3 and 5; concluding with complete necropsy with histopathological assessment.
Animals were injected on day 1, complete chemistry and hematology profiles were obtained at baseline, day 3 and day 5 and a complete necropsy was performed on day 5. Routine histology was performed on three random animals for each group for the following tissues: sternum, liver, kidney, thymus, spleen, large and small intestine.

What is called IC50 is the point on the concentration scale where inhibition reaches its midpoint. A higher IC50 goes with weaker potency in that assay. For the compound `COc1cc2cc(c1Cl)N(C)C(=O)C[C@H](OC(=O)[C@H](C)N(C)C(=O)CCSC1CC(=O)N(CC3CCC(C(=O)ON4C(=O)CCC4=O)CC3)C1=O)[C@]1(C)O[C@H]1[C@H](C)[C@@H]1C[C@@](O)(NC(=O)O1)[C@H](OC)/C=C/C=C(\C)C2` (stereo partly shown) [DM1-SMCC], in data set [1], 50 nM corresponded to half-maximal inhibition (IC50) and the “times less potent in cell killing than free drug DM1” value is reported as “about 20 times”.

In data set [1], `COc1cc2cc(c1Cl)N(C)C(=O)C[C@H](OC(=O)[C@H](C)N(C)C(=O)CCS)[C@]1(C)O[C@H]1[C@H](C)[C@@H]1C[C@@](O)(NC(=O)O1)[C@H](OC)/C=C/C=C(\C)C2` [DM1, N^2′-deacetyl-N^2′-(3-mercapto-1-oxopropyl)-maytansine] returned an IC50 of 4.5 nM. Also, in data set [2], the severity of toxicity result is reported as “less than that seen in animals of Group 2”.
